PMC9032776, “Towards Selective Binding to the GLUT5 Transporter: Synthesis, Molecular Dynamics and In Vitro Evaluation of Novel C-3-Modified 2,5-Anhydro-D-mannitol Analogs” (Pharmaceutics, 2022)
Like-named read-outs stand apart in the source and are kept apart here.

Tests used:
GLUT5 [1] = molecular target: T1, GLUT5 (Mus musculus, UniProt Q9WV38); details: cited from earlier work
T1 construct: GLUT5-expressing murine mammary carcinoma cancer cells (EMT6); endogenous in cells; host or cells: EMT6 murine mammary carcinoma cells
T1 sequence (Q9WV38 1-501): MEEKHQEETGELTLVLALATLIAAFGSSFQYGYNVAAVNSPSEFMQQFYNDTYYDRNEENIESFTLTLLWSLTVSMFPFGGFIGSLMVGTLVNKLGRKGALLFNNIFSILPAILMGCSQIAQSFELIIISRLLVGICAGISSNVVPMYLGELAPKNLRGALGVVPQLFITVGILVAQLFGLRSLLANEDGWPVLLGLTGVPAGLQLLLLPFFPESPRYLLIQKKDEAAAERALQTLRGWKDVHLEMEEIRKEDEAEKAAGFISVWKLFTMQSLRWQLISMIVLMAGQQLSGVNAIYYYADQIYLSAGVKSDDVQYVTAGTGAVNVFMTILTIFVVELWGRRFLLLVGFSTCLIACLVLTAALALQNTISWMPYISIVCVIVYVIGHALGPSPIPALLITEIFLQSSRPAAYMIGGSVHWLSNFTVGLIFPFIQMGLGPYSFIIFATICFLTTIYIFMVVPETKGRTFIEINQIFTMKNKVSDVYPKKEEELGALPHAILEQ

GLUT5 [2] = molecular target: T1, GLUT5; experiment: In vitro inhibition of 6-[18F]FDF cell uptake (competition) in EMT6 cells; assay type: cell-based, murine; details: for IC50: 60 min incubation, glucose-free Krebs-Ringer buffer, mean ± SEM from n data points out of 2-4 experiments, read-out: IC50 (mM) against 6-[18F]FDF uptake into EMT6 cells; for Inhibition of 6-[18F]FDF uptake into EMT6 cells (in words): selected concentration range 10^-8-10^-3 and 3 x 10^-2 M; for Fold better inhibition of 6-[18F]FDF uptake relative to 6-FDF: compared with reference 6-FDF
Method: EMT6 cells were grown to confluence in 12-well cell culture plates with media renewal every 2 days. One hour prior to the experiment, cell culture media was removed and the plates were washed twice with glucose-free Krebs–Ringer buffer solution. To each well, 1 mL of glucose-free Krebs–Ringer buffer solution was added and incubation at 37 °C was continued for 1 h under the glucose-free condition. After one hour, Krebs–Ringer buffer was removed.
After 60 min incubation time, radiotracer uptake was stopped with 1 mL of ice-cold PBS, and the cells were washed twice with PBS and lysed in 0.4 mL radioimmunoprecipitation assay buffer (RIPA buffer). Radioactivity in the cell lysates was then determined as counts per minute (CPM) using a WIZARD2 automatic γ-counter (Perkin Elmer, Waltham, MA, USA) and converted to the radioactivity dose SI unit Becquerel (Bq). Data was analyzed as percentage of maximum uptake of 6-[^18F]FDF. Graphs were constructed using GraphPad Prism 5.0 (GraphPad Software, San Diego, CA, USA) and half-maximum inhibition concentrations (IC50) were determined by graphical analysis of the concentration-inhibition curves.
To analyze the interaction of these novel C-3-modified 2,5-anhydro-D-mannitol analogs with GLUT5, in vitro experiments were carried out in GLUT5-expressing murine mammary carcinoma cancer cells (EMT6) to determine how the varied substitution patterns would impact GLUT5 binding. Furthermore, fructose derivative 6-FDF was used as the reference compound as it was analyzed for its uptake profile through GLUT5 in the past. […] Therefore, when designing novel specific inhibitors for the GLUT5 transporter, it would be reasonable to expect their GLUT5 transport also in a millimolar concentration range, especially when using a radiometric assay that was established with radiolabeled fructose derivative 6-[^18F]FDF in murine EMT6 breast cancer cells and with inhibition by D-fructose and reference compound 6-FDF as internal controls.

GLUT2 = test system: GLUT2; design: method as in PMID 29142019; details: murine EMT6 cells; read-out: IC50 against uptake of [18F]FDG; cited from earlier work
GLUT5 [3] = details: read-out: Affinity (Km) of fructose transport through GLUT5; D-[14C]fructose; GLUT5 (human isoform)-expressing oocytes or brush-border membrane vesicles from rat and human intestine; cited from earlier work
[4] = Solubility in Krebs-Ringer buffer; assay type: physicochemical
GLUT5 [5] = test system: GLUT5; design: method as in PMID 27074918; details: MCF7 human breast cancer cells; read-out: IC50 against D-[14C]fructose; cited from earlier work
GLUT5 [6] = test system: GLUT5; design: method as in PMID 27074918; details: proteoliposome GLUT5 expression system; read-out: IC50 against D-[14C]fructose; cited from earlier work
GLUT5 [7] = details: human MCF7 breast cancer cells; cited from earlier work
GLUT1 = test system: GLUT1; design: method as in PMID 18398011, PMID 9299540, PMID 15457374, doi:10.1002/bmb.2003.494031030227; details: cited from earlier work
GLUT5 [8] = test system: GLUT5; design: method as in PMID 26306809; details: read-out: IC50 against D-[14C]fructose; cited from earlier work

For `OC[C@H]1O[C@H](CF)[C@@H](O)[C@@H]1O` [1-FDAM, 1-deoxy-1-fluoro-2,5-anhydro-mannitol], the IC50 (GLUT5 [1]; estimated earlier by the authors, read-out: IC50 against the uptake of the probe 6-[18F]FDF) is listed as about 20 mM.
In the case of `O=C(CO)[C@@H](O)[C@H](O)[C@H](O)CF` [6-FDF, 6-deoxy-6-fluoro-D-fructose], the IC50 (GLUT5 [2]) is given as 17 ± 0.75 mM and the IC50 (GLUT5 [1]; murine EMT6 breast cancer cells, read-out: IC50 (half-maximum inhibition concentration) against 6-[18F]FDF uptake) is given as 19 mM.
Molecule `O=S(=O)(N[C@H]1[C@H](O)[C@@H](CO)O[C@@H]1CO)c1ccc(F)cc1` [Compound 4, 3-deoxy-3-[N-(4-fluorobenzenesulfonamide)amino]-2,5-anhydro-D-mannitol] has an IC50 (GLUT5 [2]) of about 6 mM.
With `O=S(=O)(N[C@H]1[C@H](O)[C@@H](CO)O[C@@H]1CO)c1ccc(F)cc1C(F)(F)F` [Compound 5, 3-deoxy-3-[N-(4-fluoro-2-(trifluoromethyl)benzenesulfonamide)amino]-2,5-anhydro-D-mannitol] the “Inhibition of 6-[18F]FDF uptake into EMT6 cells (in words)” value (“Inhibition … (in words)” for short) (GLUT5 [2]) was “failed to inhibit 6-[^18F] FDF uptake transport at all”.
In the case of `CN(C)c1cccc2c(S(=O)(=O)N[C@H]3[C@H](O)[C@@H](CO)O[C@@H]3CO)cccc12` [Compound 6, 3-deoxy-3-[N-(5-(dimethylamino)naphthalene-1-sulfonamide)amino]-2,5-anhydro-D-mannitol], the IC50 (GLUT5 [2]) is reported as 2.29 ± 0.18 mM and the “Fold better inhibition of 6-[18F]FDF uptake relative to 6-FDF” value (GLUT5 [2]) is reported as “fivefold stronger inhibitory effect”.
With `OC[C@H]1O[C@H](CO)[C@@H](NC(=S)Nc2ccc(F)cc2)[C@@H]1O` [Compound 7, 3-deoxy-3-[N-(1-(4-fluorophenyl)thiourea)amino]-2,5-anhydro-D-mannitol] the “Inhibition … (in words)” value (GLUT5 [2]) was “no effect on 6-[^18F]FDF uptake”.
`O=C(O)c1cc(NC(=S)N[C@H]2[C@H](O)[C@@H](CO)O[C@@H]2CO)ccc1-c1c2ccc(=O)cc-2oc2cc(O)ccc12` [Compound 8] showed an IC50 (GLUT5 [2]) of about 20 mM.
In the case of `O=C(N[C@H]1[C@H](O)[C@@H](CO)O[C@@H]1CO)c1ccc(F)cc1` [Compound 9, 3-deoxy-3-[N-(4-fluorobenzamide)amino]-2,5-anhydro-D-mannitol], the “Inhibition … (in words)” value (GLUT5 [2]) is reported as “no inhibitory activity in the selected concentration range”.
For `O=C(CO/N=C/c1ccc(F)cc1)N[C@H]1[C@H](O)[C@@H](CO)O[C@@H]1CO` [Compound 10, 3-deoxy-3-[N-(2-(((4-fluorobenzylidene)amino)oxy)acetamide)amino]-2,5-anhydro-D-mannitol], the “Fold better inhibition of 6-[18F]FDF uptake relative to 6-FDF” value (GLUT5 [2]) was ~ 10 fold.
With `O=C(N[C@H]1[C@H](O)[C@@H](CO)O[C@@H]1CO)c1cc2ccc(OCCF)cc2oc1=O` [Compound 11, 3-deoxy-3-[N-(7-(2-fluoroethoxy)-2-oxo-2H-chromene-3-carboxamide)amino]-2,5-anhydro-D-mannitol] the IC50 (GLUT5 [2]) was 1.71 ± 0.08 mM and the “Fold better inhibition of 6-[18F]FDF uptake relative to 6-FDF” value (GLUT5 [2]) was ~ 10 fold.
For `O=C(CO)[C@@H](O)[C@H](O)[C@H](O)CO` [Fructose, D-fructose], the IC50 (GLUT2) is listed as 80 mM, the Km (GLUT5 [3]) is listed as 11 to 15 mM and the Solubility [4] is listed as “freely soluble”.
For `CS(=O)(=O)c1ccc(Nc2ccc3c(c2)OCO3)c([N+](=O)[O-])c1` [MSNBA, N-(4-methanesulfonyl-2-nitrophenyl)-2H-1,3-benzodioxol-5-amine], the IC50 (GLUT5 [5]) is listed as 5.8 mM and the IC50 (GLUT5 [6]) is listed as 100 µM.
For `O=[N+]([O-])c1ccc(NC[C@H]2O[C@H](CO)[C@@H](O)[C@@H]2O)c2nonc12` [NBDM, 1-[N-(7-nitrobenz-2-oxa-1,3-diazole-4-yl)amino]-2,5-anhydro-D-mannitol], the Ki (GLUT5 [7]) is given as 2.3 to 2.7 mM and the “Transport efficiency through GLUT5 relative to D-fructose” value (GLUT5 [7]) is given as “transported twice as efficiently as D-fructose”.
In the case of `OC[C@H]1OC(O)[C@H](O)[C@@H](O)[C@@H]1O` (stereo partly shown) [glucose], the “Affinity of glucose transport through GLUT1 (K4)” value (GLUT1) is listed as 1 to 2 mM.
For `C=C1C[C@@]23CC[C@H]4[C@@](C)(CCC[C@@]4(C)C(=O)O[C@@H]4O[C@H](CO)[C@@H](O)[C@H](O)[C@H]4O)[C@@H]2CC[C@]1(O[C@@H]1O[C@H](CO)[C@@H](O)[C@H](O)[C@H]1O)C3` [rubusoside], the IC50 (GLUT5 [8]) is given as 10.3 mM.
